Reference: article PMC11642016 (International Journal of Molecular Sciences, 2024)
Several values for one entry are separate records, joined by “and”; a condition that tells them apart may be missing. Equal values may be shown once. Read-outs that look alike come from different tables or passages of the source.

Columns and labels:
Fadu cells = assay: CellTiter-Glo luminescent cell viability assay, Fadu
[1] = CellTiter-Glo cell viability assay, HEK293T CLPP−/− (ClpP dependence); settings: human, HEK293T CLPP−/− cells, HEK293T CLPP-/- Cell viability (% of controll), 72 h, dose–response, individual replicates;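 note: CellTiter-Glo luminescent signal read on a microplate reader once HEK293T CLPP−/− cells had been exposed to compounds for 72 h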
Protocol: (§1) Primary fibroblast cultures were prepared from human skin biopsies and maintained in DMEM supplemented with 10% FBS, 1% penicillin-streptomycin, and 1% MEM Non-Essential Amino Acids Solution (Thermo Fisher Scientific). […] All cell lines were cultured in a humidified atmosphere at 37 °C and 5% CO2, passaged twice a week, and the experiments were performed on cells between passage 5 and 15. The cell lines were routinely screened for the absence of mycoplasma infection (DAPI staining).
(§2) The effects of the synthesized compounds on cell viability were measured using the CellTiter-Glo® luminescent cell viability assay (Promega, Madison, WI, USA), according to the manufacturer’s instructions. Briefly, cells were seeded onto a flat-bottomed, white 96-well plate (BRANDplates, cat. no.: 781965)), with the following densities: PANC-1: 750 cells/well, Fadu: 2000 cells/well, primary fibroblasts: 2000 cells/well, HEK293T WT: 1000 cells/well, HEK293T CLPP^−/−: 2500 cells/well. After seeding, cells were incubated for a further 48 h before treatment. Cells were treated with the compounds for 72 h. Three concentrations (25.0 µM; 8.3 µM; 2.8 µM) were applied during the initial cell viability screening, while for the determination of dose–response curves, 1.5-fold serially diluted compound concentrations were applied (range: 26 µM–0.7 µM). After treatment, the luminescence signal was recorded using a microplate reader (BioTek Synergy 2 Multi-Mode Reader, BioTek, Winooski, VT, USA).
(§3) Data analysis was performed using GraphPad Prism 9.5.0 software (GraphPad Software, San Diego, CA, USA). […] The dose–response curves were generated by four-parameter nonlinear regression, and the IC50 values were determined as the means ± SEM of the best-fit values of 3 independent measurements. The R^2 values were consistently above 0.93, indicating a strong fit of the model to the experimental data (Supplementary S.89). […] Dunnett’s post hoc test was applied to adjust for multiple comparisons, minimizing the likelihood of false positive results. Assumptions for ANOVA, including normality (assessed via QQ plots) and homogeneity of variance (tested using the Brown–Forsythe test), were verified. The following significance levels were applied: * p < 0.05, ** p < 0.01, *** p < 0.001, **** p < 0.0001. […] The tumor selectivity of the compounds was quantitatively characterized by the selectivity index (SI). This parameter was calculated as the ratio of the average best-fit IC50 value for primary fibroblasts and the best-fit IC50 value for the corresponding tumor cells (PANC-1 or Fadu).

HEK293T CLPP^−/− cells = assay: as above; settings: 72 h; for HEK293T CLPP-/- Cell viability (% of controll): individual replicates
Protocol: as §1, §2, §3

[2] = CellTiter-Glo cell viability assay, HEK293T WT; settings: human, HEK293T WT cells, HEK293T WT Cell viability (% of controll), 72 h, dose–response, individual replicates
Protocol: as §1, §2, §3

HEK293T WT cells = assay: CellTiter-Glo cell viability assay, HEK293T WT; settings: for HEK293T WT Cell viability (% of controll): dose–response, individual replicates
Protocol: as §1, §2, §3

PANC-1 and Fadu cells = assay: CellTiter-Glo viability, statements covering both cancer cell lines; assay type: cell-based, human; settings: 72 h dose–response

Q: Which results are given for CNCC#Cc1cccc(CN2C(=O)C3=C(CCN(Cc4ccc(-n5cc(-c6ccccc6)nn5)cc4)C3)N3CCN=C23)c1 [38b]?
A: Fadu Cell viability (% of controll) (Fadu cells; 26 μM, 72 h, dose–response, individual replicates): 0 % of controll; viability at 2.8 µM (Fadu cells; Homo sapiens, FaDu, 72 h, read-out: Cell Viability (% of Control) 2.8 µM, Fadu, 2.8 µM, 72 h, second-set screening, mean ± SD, n = 2): 91 ± 17%; viability at 8.3 µM (Fadu cells; Homo sapiens, FaDu, 72 h, read-out: Cell Viability (% of Control) 8.3 µM, Fadu, 8.3 µM, 72 h, second-set screening, mean ± SD, n = 2): 0%; viability at 25 µM (Fadu cells; Homo sapiens, FaDu, 72 h, read-out: Cell Viability (% of Control) 25 µM, Fadu, 25 µM, 72 h, second-set screening, mean ± SD, n = 2): 0%; viability at 0.7 µM (Fadu cells; Homo sapiens, FaDu, 72 h, read-out: Fadu Cell viability (% of controll), 0.7 μM, 72 h, dose–response, individual replicates): 103%; viability at 1 µM (Fadu cells; Homo sapiens, FaDu, 72 h, read-out: Fadu Cell viability (% of controll), 1 μM, 72 h, dose–response, individual replicates): 113%; viability at 1.5 µM (Fadu cells; Homo sapiens, FaDu, 72 h, read-out: Fadu Cell viability (% of controll), 1.5 μM, 72 h, dose–response, individual replicates): 104%; viability at 2.3 µM (Fadu cells; Homo sapiens, FaDu, 72 h, read-out: Fadu Cell viability (% of controll), 2.3 μM, 72 h, dose–response, individual replicates): 104%; viability at 7.7 µM (Fadu cells; Homo sapiens, FaDu, 72 h, read-out: Fadu Cell viability (% of controll), 7.7 μM, 72 h, dose–response, individual replicates): 0%; viability at 17.3 µM (Fadu cells; Homo sapiens, FaDu, 72 h, read-out: Fadu Cell viability (% of controll), 17.3 μM, 72 h, dose–response, individual replicates): 0%; viability at 26 µM (Fadu cells; Homo sapiens, FaDu, 72 h, read-out: Fadu Cell viability (% of controll), 26 μM, 72 h, dose–response, individual replicates): 0%; IC50 (Fadu cells; Homo sapiens, FaDu, 72 h, read-out: IC50 Value ± SEM Fadu, 72 h treatment, best-fit values, n = 3): 3300 ± 70 nM; Selectivity Index (SI) Fibroblast/Fadu (Fadu cells; ratio of mean best-fit IC50 for primary fibroblasts and best-fit IC50 for Fadu): 1.3; viability at 72 h, 0.4 µM ([1]; 0.4 μM): 113%; viability at 72 h, 0.6 µM ([1]; 0.6 μM): 117%; viability at 72 h, 1 µM ([1]; 1.0 μM): 118%; viability at 72 h, 1.6 µM ([1]; 1.6 μM): 100%; viability at 72 h, 6.4 µM ([1]; 6.4 μM): 0%; viability at 72 h, 16.25 µM ([1]; 16.25 μM): 0%; viability at 72 h, 26 µM ([1]; 26 μM): 0%; HEK293T CLPP-/- Cell viability (% of controll) (HEK293T CLPP^−/− cells; 0.4 μM, dose–response, listed as CZT457, 0.4 µM): 116 % of controll and 114 % of controll and 119 % of controll; HEK293T CLPP-/- Cell viability (% of controll) (HEK293T CLPP^−/− cells; 0.6 μM, dose–response, listed as CZT457, 0.6 µM): 112 % of controll (2×) and 110 % of controll; HEK293T CLPP-/- Cell viability (% of controll) (HEK293T CLPP^−/− cells; 1.0 μM, dose–response, listed as CZT457, 1 µM): 112 % of controll and 111 % of controll and 115 % of controll; HEK293T CLPP-/- Cell viability (% of controll) (HEK293T CLPP^−/− cells; 1.6 μM, dose–response, listed as CZT457, 1.6 µM): 107 % of controll and 101 % of controll and 103 % of controll; HEK293T CLPP-/- Cell viability (% of controll) (HEK293T CLPP^−/− cells; 2.5 μM, dose–response, listed as CZT457, 2.5 µM): 25 % of controll and 33 % of controll and 32 % of controll and 13 % of controll; HEK293T CLPP-/- Cell viability (% of controll) (HEK293T CLPP^−/− cells; 4.0 μM, dose–response, listed as CZT457, 4 µM): 1 % of controll and 0 % of controll; HEK293T CLPP-/- Cell viability (% of controll) (HEK293T CLPP^−/− cells; 6.4 μM, dose–response): 0 % of controll; HEK293T CLPP-/- Cell viability (% of controll) (HEK293T CLPP^−/− cells; 16.25 μM, dose–response): 0 % of controll; HEK293T CLPP-/- Cell viability (% of controll) (HEK293T CLPP^−/− cells; 26 μM, dose–response): 0 % of controll; IC50 (HEK293T CLPP^−/− cells; Homo sapiens, HEK-293T, read-out: IC50 (µM) HEK293T CLPP^−/−): 2.1 ± 0.03 µM; effect on the viability of HEK293T CLPP^−/− cells (HEK293T CLPP^−/− cells; dose–response, compared with HEK293T WT): maintained; viability at 72 h, 0.4 µM ([2]; 0.4 μM): 121%; viability at 72 h, 0.6 µM ([2]; 0.6 μM): 107%; viability at 72 h, 1 µM ([2]; 1.0 μM): 109%; viability at 72 h, 1.6 µM ([2]; 1.6 μM): 64%; viability at 72 h, 4 µM ([2]; 4.0 μM): 0%; viability at 72 h, 6.4 µM ([2]; 6.4 μM): 0%; viability at 72 h, 16.25 µM ([2]; 16.25 μM): 0%; viability at 72 h, 26 µM ([2]; 26 μM): 0%; HEK293T WT Cell viability (% of controll) (HEK293T WT cells; 0.4 μM, 72 h): 116 % of controll and 117 % of controll and 121 % of controll; HEK293T WT Cell viability (% of controll) (HEK293T WT cells; 0.6 μM, 72 h): 110 % of controll and 120 % of controll and 116 % of controll; HEK293T WT Cell viability (% of controll) (HEK293T WT cells; 1.0 μM, 72 h): 110 % of controll and 102 % of controll; HEK293T WT Cell viability (% of controll) (HEK293T WT cells; 1.6 μM, 72 h): 66 % of controll and 67 % of controll and 83 % of controll; HEK293T WT Cell viability (% of controll) (HEK293T WT cells; 2.5 μM, 72 h): 6 % of controll and 15 % of controll and 12 % of controll (2×); HEK293T WT Cell viability (% of controll) (HEK293T WT cells; 4.0 μM, 72 h): 0 % of controll; HEK293T WT Cell viability (% of controll) (HEK293T WT cells; 6.4 μM, 72 h): 0 % of controll; HEK293T WT Cell viability (% of controll) (HEK293T WT cells; 16.25 μM, 72 h): 0 % of controll; HEK293T WT Cell viability (% of controll) (HEK293T WT cells; 26 μM, 72 h): 0 % of controll; IC50 (HEK293T WT cells; Homo sapiens, HEK-293T, 72 h, read-out: IC50 (µM) HEK293T WT, 72 h treatment, ± SEM, best-fit values, n = 4): 1.7 ± 0.02 µM; IC50 (HEK293T WT cells; Homo sapiens, HEK-293T, read-out: HEK293T WT IC50 values, Mean, mean of independently fitted replicate IC50 values (Supplement S.6)): 1.67 µM; IC50 (HEK293T WT cells; Homo sapiens, HEK-293T, read-out: HEK293T WT IC50 values, individual replicates n1-n4, IC50 independently determined for each replicate measurement (Supplement S.6)): 1.61 µM; IC50 (HEK293T WT cells; read-out: HEK293T WT IC50 values, individual replicates n1-n4, IC50 independently determined for each replicate measurement (Supplement S.6)): 1.66 µM and 1.63 µM and 1.79 µM; concentration range of almost complete eradication of PANC-1 and Fadu cells with little to no cytotoxic effect toward fibroblasts (PANC-1 and Fadu cells): 3000 to 4000 nM
